One test has as its target T1, hNPFF1 (Homo sapiens, UniProt Q9GZQ6).
T1 construct: The cDNA encoding the full-length human NPFFR1 and human NPFFR2; expressed in transfected cells
Description: Receptor binding assay with [3H]-FFRFamide on CHO cell membranes expressing SF-hNPFFR1. The note with it: for inhibition at 0.5 µM / inhibition at 5 µM / Ki: [3H]-FFRF-NH2 radioligand, mean of at least two experiments; for Ki: read-out: Ki NPFF1. From the text: (§1) The cDNA encoding the full-length human NPFFR1 and human NPFFR2 were subcloned into the pcDNA3 expression vector (Invitrogen, Cergy Pontoise, France) using standard molecular biology methods. A sequence encoding a signal sequence and a Flag epitope was fused to the 5' coding sequence of both hNPFFR1 and hNPFFR2 cDNA according to (Guan et al., 1992) resulting in a SF-hNPFFR1 and SF-hNPFFR2 constructs. These contructs were stably transfected into CHO cells.
(§2) Membranes from CHO cells stably expressing SF-hNPFFR1 or SF-hNPFFR2 were prepared as described (Becker et al., 1999). SF-hNPFFR1 or SF-hNPFFR2 membranes (10µg) were incubated for 30 min at 25 °C in a final volume of 0.5 ml containing 50 mM HEPES pH 7.4, 1 mM CaCl2, 1 mM MgCl2, 0.1% bovine serum albumin, 10 nM and 3 nM [^3H]-FFRFamide (CEA, Paris; specific activity, 13,6 Ci/mmol) for […], respectively and the ligands to be tested. Non-specific binding was determined in presence of 1 µM neuropeptide FF for SF-hNPFFR2 and 1 µM neuropeptide VF for SF -hNPFFR1. Typical total and nonspecific binding were 1200 and 200 dpm, respectively for SF-hNPFFR1 and SF-hNPFFR2. Incubation mixtures were rapidly filtered and washed with 50 mM HEPES pH 7.4, 1 mM CaCl2, 1 mM MgCl2, on 96 wells GF/B unifilter (Perkin Elmer). Unifilter plates where then dryied for 1hr at 65°C. Bound radioactivity was determined by scintillation counting with 30 µl of scintillation cocktail (O-scint, Perkin Elmer) per well on a Topcount scintillation apparatus (Perkin Elmer).

The next test addresses T2, hNPFF2 (Homo sapiens, UniProt Q9Y5X5).
T2 construct: The cDNA encoding the full-length human NPFFR1 and human NPFFR2; expressed in transfected cells
Description: Receptor binding assay with [3H]-FFRFamide on CHO cell membranes expressing SF-hNPFFR2. The following applies: for inhibition at 0.5 µM / inhibition at 5 µM / Ki: [3H]-FFRF-NH2 radioligand, mean of at least two experiments; for Ki: read-out: Ki NPFF2.
Excerpt: as §1, §2

T1 sequence (Q9GZQ6 whole entry): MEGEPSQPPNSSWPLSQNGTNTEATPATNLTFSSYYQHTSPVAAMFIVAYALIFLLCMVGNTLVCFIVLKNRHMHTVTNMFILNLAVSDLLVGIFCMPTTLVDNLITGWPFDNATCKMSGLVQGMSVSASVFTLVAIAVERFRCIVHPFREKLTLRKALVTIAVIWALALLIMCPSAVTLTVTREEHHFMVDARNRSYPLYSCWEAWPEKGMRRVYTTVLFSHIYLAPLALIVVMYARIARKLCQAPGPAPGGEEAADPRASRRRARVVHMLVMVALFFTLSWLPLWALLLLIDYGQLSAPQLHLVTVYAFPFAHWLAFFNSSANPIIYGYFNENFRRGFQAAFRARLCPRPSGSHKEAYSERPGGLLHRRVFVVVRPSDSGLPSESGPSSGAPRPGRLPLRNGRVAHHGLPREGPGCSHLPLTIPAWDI
T2 sequence (Q9Y5X5 whole entry): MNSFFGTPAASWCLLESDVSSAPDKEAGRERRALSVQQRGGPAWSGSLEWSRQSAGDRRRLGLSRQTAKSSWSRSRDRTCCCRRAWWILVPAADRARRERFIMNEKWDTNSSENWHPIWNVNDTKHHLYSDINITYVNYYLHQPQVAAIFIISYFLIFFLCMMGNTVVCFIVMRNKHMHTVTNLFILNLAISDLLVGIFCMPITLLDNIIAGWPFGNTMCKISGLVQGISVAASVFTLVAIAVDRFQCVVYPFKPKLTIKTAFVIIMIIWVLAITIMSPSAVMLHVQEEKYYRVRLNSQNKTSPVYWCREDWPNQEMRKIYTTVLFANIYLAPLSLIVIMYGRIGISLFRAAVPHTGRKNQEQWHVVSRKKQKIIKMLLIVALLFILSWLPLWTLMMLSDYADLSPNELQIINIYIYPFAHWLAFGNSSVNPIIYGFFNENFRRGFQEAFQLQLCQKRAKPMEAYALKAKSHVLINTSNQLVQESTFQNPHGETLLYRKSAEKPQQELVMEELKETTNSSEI

What is called inhibition is the share of the control response that was lost under treatment. Low values mean a weak effect, high ones a strong effect. On hNPFF1, `O=C(N[C@@H](CCCN1CCC(N2C(=O)Cc3ccccc32)CC1)C(=O)NCCc1ccccc1)c1ccccc1-c1ccccc1` [Compound 37, (2S)-5-[4-(2-oxo-2,3-dihydro-1H-indol-1-yl)piperidin-1-yl]-N-(2-phenylethyl)-2-[(2-phenylphenyl)formamido]pentanamide] displayed an inhibition at 0.5 µM of 21 ± 6% and an inhibition at 5 µM of 42 ± 3%. Also, on hNPFF2, the inhibition at 0.5 µM worked out at 0% and the inhibition at 5 µM came out at 45%.

As a reminder, the Ki is the dissociation constant of the complex between target and ligand, obtained from inhibition or displacement. For `O=C(N[C@@H](CCCNCc1ccccc1)C(=O)NCCc1ccccc1)c1ccccc1-c1ccccc1` [Compound 1, (2S)-5-(benzylamino)-N-(2-phenylethyl)-2-[(2-phenylphenyl)formamido]pentanamide], the Ki on hNPFF1 was 240 ± 38 nM; on hNPFF2, 2300 ± 66 nM.

Consider `COc1cccc(CNCCC[C@H](NC(=O)c2ccccc2-c2ccccc2)C(=O)NCCc2ccccc2)c1` [Compound 9, (2S)-5-{[(3-methoxyphenyl)methyl]amino}-N-(2-phenylethyl)-2-[(2-phenylphenyl)formamido]pentanamide], for which, at hNPFF1, the inhibition at 0.5 µM came to 21 ± 4% and the inhibition at 5 µM came to 60 ± 3%. On hNPFF2, this compound registered an inhibition at 0.5 µM of 9 ± 1% and an inhibition at 5 µM of 45%.

For the compound `CC(=O)N1CCN(CCC[C@H](NC(=O)c2ccccc2-c2ccccc2)C(=O)NCCc2ccccc2)CC1` [Compound 35, (2S)-5-(4-acetylpiperazin-1-yl)-N-(2-phenylethyl)-2-[(2-phenylphenyl)formamido]pentanamide], the Ki on hNPFF1 was determined as 319 ± 13 nM. On hNPFF2, this compound displayed an inhibition at 0.5 µM of 0% and an inhibition at 5 µM of 0%.

On to `CC(C)CNCCC[C@H](NC(=O)c1ccccc1-c1ccccc1)C(=O)NCCc1ccccc1` [Compound 4, (2S)-5-[(2-methylpropyl)amino]-N-(2-phenylethyl)-2-[(2-phenylphenyl)formamido]pentanamide], for which the inhibition at 0.5 µM was 14 ± 1% at hNPFF1 and 2 ± 6% at hNPFF2. The inhibition at 5 µM stood at 23% on hNPFF1 and 7 ± 15% at hNPFF2.

Regarding `O=C(N[C@@H](CCCN1CCC(Cc2ccccc2)CC1)C(=O)NCCc1ccccc1)c1ccccc1-c1ccccc1` [Compound 32, (2S)-5-(4-benzylpiperidin-1-yl)-N-(2-phenylethyl)-2-[(2-phenylphenyl)formamido]pentanamide], the results for the Ki on hNPFF1 and on hNPFF2 were 400 nM and 34 nM, respectively.

Turning to `O=C(N[C@@H](CCCN1CCC(c2ccccc2)CC1)C(=O)NCCc1ccccc1)c1ccccc1-c1ccccc1` [Compound 31, (2S)-N-(2-phenylethyl)-2-[(2-phenylphenyl)formamido]-5-(4-phenylpiperidin-1-yl)pentanamide], the Ki on hNPFF1 is 485 ± 35 nM. At hNPFF2, this compound registered an inhibition at 0.5 µM of 0% and an inhibition at 5 µM of 45 ± 7%.

In the case of `O=C(N[C@H](CCCNCc1ccccc1)C(=O)NCCc1ccccc1)c1ccccc1-c1ccccc1` [Compound 2, (2R)-5-(benzylamino)-N-(2-phenylethyl)-2-[(2-phenylphenyl)formamido]pentanamide], the Ki amounted to 480 ± 33 nM on hNPFF1 and 910 ± 94 nM at hNPFF2.

On hNPFF1, `O=C(N[C@@H](CCCNCc1ccccc1Cl)C(=O)NCCc1ccccc1)c1ccccc1-c1ccccc1` [Compound 12, (2S)-5-{[(2-chlorophenyl)methyl]amino}-N-(2-phenylethyl)-2-[(2-phenylphenyl)formamido]pentanamide] returned an inhibition at 0.5 µM of 32 ± 1% and an inhibition at 5 µM of 74 ± 2%. On hNPFF2, the inhibition at 0.5 µM is 25 ± 5% and the inhibition at 5 µM was found to be 64 ± 3%.

With `O=C(N[C@@H](CCCN1CCC(N2CCCCC2)CC1)C(=O)NCCc1ccccc1)c1ccccc1-c1ccccc1` [Compound 33, (2S)-N-(2-phenylethyl)-2-[(2-phenylphenyl)formamido]-5-[4-(piperidin-1-yl)piperidin-1-yl]pentanamide], the Ki at hNPFF1 was found to be 71 ± 11 nM. For the same compound, on hNPFF2, testing at 0.5 µM gave an inhibition of 13 ± 11% and the inhibition at 5 µM came to 55 ± 15%.

`O=C(N[C@@H](CCCN1CCC(Cc2ccccc2)CC1)C(=O)NCCc1ccccc1)c1ccc2ccccc2n1` [Compound 42, (2S)-5-(4-benzylpiperidin-1-yl)-N-(2-phenylethyl)-2-(quinolin-2-ylformamido)pentanamide]: on hNPFF1, the inhibition at 0.5 µM stood at 11 ± 15% and testing at 5 µM gave an inhibition of 72 ± 11%. At hNPFF2, 0.5 µM produced 4 ± 10% inhibition and at 5 µM the inhibition was 47%.

On to `COc1ccc(CNCCC[C@H](NC(=O)c2ccccc2-c2ccccc2)C(=O)NCCc2ccccc2)cc1` [Compound 10, (2S)-5-{[(4-methoxyphenyl)methyl]amino}-N-(2-phenylethyl)-2-[(2-phenylphenyl)formamido]pentanamide], for which, at hNPFF1, the Ki was determined as 30 ± 2 nM. At hNPFF2, this compound gave an inhibition at 0.5 µM of 11 ± 20% and an inhibition at 5 µM of 40 ± 2%.

Turning to `O=C(CCCNC(=O)c1ccccc1)N[C@@H](CCCN1CCC(Cc2ccccc2)CC1)C(=O)NCCc1ccccc1` [Compound 46, (2S)-5-(4-benzylpiperidin-1-yl)-N-(2-phenylethyl)-2-[4-(phenylformamido)butanamido]pentanamide], the inhibition at 0.7 µM at hNPFF1 (0.7 µM (footnote e)) stood at 35%; at hNPFF2 (0.7 µM (footnote e)), 4%. In addition, the results for the inhibition at 7 µM on hNPFF1 (7 µM (footnote d)) and at hNPFF2 (7 µM (footnote d)) were 59% and 39%, respectively.

For the compound `COc1ccc(CN(C)CCC[C@H](NC(=O)c2ccccc2-c2ccccc2)C(=O)NCCc2ccccc2)cc1OC` [Compound 17, (2S)-5-{[(3,4-dimethoxyphenyl)methyl](methyl)amino}-N-(2-phenylethyl)-2-[(2-phenylphenyl)formamido]pentanamide], at hNPFF1, the inhibition at 0.5 µM was 17 ± 5% and the inhibition at 5 µM amounted to 65 ± 6%. Besides, at hNPFF2, the inhibition at 0.5 µM was 18 ± 2% and 5 µM produced 48 ± 3% inhibition.

For the compound `O=C(N[C@@H](CCCN1CCOCC1)C(=O)NCCc1ccccc1)c1ccccc1-c1ccccc1` [Compound 36, (2S)-5-(morpholin-4-yl)-N-(2-phenylethyl)-2-[(2-phenylphenyl)formamido]pentanamide], on hNPFF1, the inhibition at 0.5 µM is 10 ± 3% and testing at 5 µM gave an inhibition of 25 ± 10%. Besides, at hNPFF2, at 0.5 µM the inhibition was 2% and testing at 5 µM gave an inhibition of 25 ± 2%.

As for `O=C(N[C@@H](CCCNCCc1ccccc1)C(=O)NCCc1ccccc1)c1ccccc1-c1ccccc1` [Compound 3, (2S)-N-(2-phenylethyl)-5-[(2-phenylethyl)amino]-2-[(2-phenylphenyl)formamido]pentanamide], on hNPFF1, at 0.5 µM the inhibition was 29 ± 2% and the inhibition at 5 µM turned out to be 61 ± 1%. Moreover, on hNPFF2, the inhibition at 0.5 µM was 15 ± 15% and the inhibition at 5 µM was found to be 24 ± 6%.

On hNPFF1, `O=C(N[C@@H](CCCN1CCCCC1)C(=O)NCCCc1ccccc1)c1ccccc1-c1ccccc1` [Compound 28, (2S)-2-[(2-phenylphenyl)formamido]-N-(3-phenylpropyl)-5-(piperidin-1-yl)pentanamide] came in with an inhibition at 0.5 µM of 16 ± 25% and an inhibition at 5 µM of 41 ± 2%. On hNPFF2, testing at 0.5 µM gave an inhibition of 0% and the inhibition at 5 µM came to 17%.

On to `CN(CCc1ccccc1)C(=O)[C@H](CCCNCc1ccccc1)NC(=O)c1ccccc1-c1ccccc1` [Compound 5, (2S)-5-(benzylamino)-N-methyl-N-(2-phenylethyl)-2-[(2-phenylphenyl)formamido]pentanamide], for which the Ki at hNPFF1 was 56 ± 11 nM; on hNPFF2 it was 1300 ± 590 nM.

`COc1ccc(CN(C)CCC[C@H](NC(=O)c2ccccc2-c2ccccc2)C(=O)NCCc2ccccc2)cc1` [Compound 21, (2S)-5-{[(4-methoxyphenyl)methyl](methyl)amino}-N-(2-phenylethyl)-2-[(2-phenylphenyl)formamido]pentanamide]: the values for the inhibition at 0.5 µM on hNPFF1 and at hNPFF2 were 12 ± 10% and 0%, respectively. Besides, the inhibition at 5 µM came to 58 ± 14% on hNPFF1 and 47% at hNPFF2.

On hNPFF1, `O=C(N[C@H](CCCN1CCc2ccccc2C1)C(=O)NCCc1ccccc1)c1ccccc1-c1ccccc1` [Compound 25, (2R)-N-(2-phenylethyl)-2-[(2-phenylphenyl)formamido]-5-(1,2,3,4-tetrahydroisoquinolin-2-yl)pentanamide] had an inhibition at 0.5 µM of 14 ± 1% and an inhibition at 5 µM of 51 ± 14%. For the same compound, at hNPFF2, the inhibition at 0.5 µM turned out to be 0% and the inhibition at 5 µM stood at 16 ± 5%.

Consider `CN(CCC[C@H](NC(=O)c1ccccc1-c1ccccc1)C(=O)NCCc1ccccc1)Cc1ccccc1` [Compound 15, (2S)-5-[benzyl(methyl)amino]-N-(2-phenylethyl)-2-[(2-phenylphenyl)formamido]pentanamide], for which the Ki was found to be 680 ± 160 nM at hNPFF1 and 1100 ± 510 nM at hNPFF2.

The values are drawn from patent publication EP2669276A1 (Université de Strasbourg, priority 2012, dated 2013).
